In ChEMBL document CHEMBL3832761, “MMV Pathogen Box Bioactivity Data” (2017):

Assays:
[1] = test system: Cryptosporidium parvum; assay: AntiCryptosporidium parvum activity Compounds added at t0, IC 50 (uM); type: functional, organism-based
[2] = test system: Trypanosoma brucei; assay: AntiTrypanosoma brucei activity T. b. rhodesiense IC50 (uM); type: functional, organism-based
[3] = test system: MRC5; assay: MRC5 CC50 (uM) Cytotoxicity; type: functional; conditions: Homo sapiens
[4] = test system: Leishmania donovani; assay: AntiLeishmania activity L. donovani (axenic) IC50 (uM); type: functional, organism-based
[5] = PMM CC50 (uM) Cytotoxicity; type: functional; conditions: Macrophage
[6] = test system: Trypanosoma brucei; assay: AntiTrypanosoma brucei activity T. b. brucei IC50 (uM); type: functional, organism-based
[7] = test system: Leishmania donovani; assay: AntiLeishmania activity L. donovani (macrophages) IC50 (uM); type: functional, organism-based
[8] = test system: Trypanosoma cruzi; assay: AntiTrypanosoma cruzi activity IC50 (uM); type: functional, organism-based
[9] = test system: L6; assay: L6 CC50 (uM) Cytotoxicity; type: functional; conditions: Rattus norvegicus
[10] = test system: Leishmania; assay: AntiLeishmania activity Toxicity on infected PMM (uM); type: functional
[11] = test system: Leishmania infantum; assay: AntiLeishmania activity L. infantum (macrophages) IC50 (uM); type: functional, organism-based
[12] = test system: HepG2; assay: Cytotoxicity data HepG2 CC20 (uM); type: functional
[13] = test system: Toxoplasma gondii; assay: AntiToxoplasma gondii activity data 2-day killing assay: IC50 (uM), Experiment G; type: functional, organism-based
[14] = HL60 CC50 (uM) Cytotoxicity; type: functional; conditions: HL-60
[15] = test system: Toxoplasma gondii; assay: AntiToxoplasma gondii activity data 2-day killing assay: IC50 (uM), Experiment F; type: functional, organism-based; conditions: Toxoplasma gondii, 48 h; read-out: IC50
[16] = test system: Toxoplasma gondii; assay: AntiToxoplasma gondii activity data 2-day killing assay: inhibition at 10 uM (%) Experiment E; type: functional
[17] = test system: Toxoplasma gondii; assay: AntiToxoplasma gondii activity data 2-day killing assay: inhibition at 10 uM (%) Experiment C; type: functional; conditions: 48 h
[18] = test system: Toxoplasma gondii; assay: AntiToxoplasma gondii activity data Inhibition of plaque forming efficiency (%) Experiment A; type: functional; set-up: concentration or dose not given beside the values
[19] = test system: Toxoplasma gondii; assay: AntiToxoplasma gondii activity data 2-day killing assay: inhibition at 10 uM (%) Experiment D; type: functional
[20] = test system: Onchocerca lienalis; assay: AntiOnchocerca activity O. lienalis microfilariae Motility reduction (%); type: functional; set-up: concentration or dose not given beside the values
[21] = test system: Schistosoma mansoni; assay: AntiSchistosoma mansoni activity Adults IC50 (uM); type: functional, organism-based
[22] = test system: Schistosoma mansoni; assay: AntiSchistosoma mansoni activity Newly Transformed Schistosomula: inhibition at 10 uM at 72h (%); type: functional
[23] = test system: Schistosoma mansoni; assay: AntiSchistosoma mansoni activity Juveniles IC50 (uM); type: functional, organism-based

Structure (SMILES) | IC50 [2] | IC50 [4] | IC50 [6] | IC50 [7] | IC50 [8] | IC50 [11] | CC50 [3] | CC50 [5] | CC50 [9] | Toxicity on infected macrophages [10] | CC20 [12] | CC50 [14] | IC50 [15] | Inhibition [16] | inhibition at 10 µM [17] | Inhibition [18] | Inhibition [19] | other results
CCOc1ccc2cc(-c3nn(C(C)(C)C)c(N)c3C(N)=O)cnc2c1 |  |  |  |  |  |  |  |  |  |  |  |  |  |  |  |  |  | IC50 [1]: 0.05 µM
Cc1cc(NC(=O)c2ccc(Oc3ccc(Cl)cc3O)o2)no1 |  |  |  |  |  |  |  |  |  |  |  | > 50 µM | 7.32 µM | 22% | 70% | ~85% | 64.8% | IC50 [13]: no inhibition
Nc1ncnc2[nH]nc(Cc3cccc4ccccc34)c12 |  |  |  |  |  |  |  |  |  |  |  | > 25 µM | 2.31 µM | 63.3% | 54.7% | 100% | 89.2% | IC50 ([13]; Toxoplasma gondii, 48 h, read-out: IC50): 3.05 µM
Clc1ccc(Cl)c(CO[C@H]2CCCC[C@@H]2n2ccnc2)c1 | 22.9 µM | 15.6 µM | > 32 µM | 12.8 µM | 1.36 µM | 16.2 µM | > 32 µM | 16 µM | 30.7 µM | 30 µM | 37.1 µM |  |  |  |  |  |  | 
Nc1ncc(-c2ccc(C(F)(F)F)nc2)cc1-c1ccc(C(F)(F)F)nc1 |  |  |  |  |  |  |  |  |  |  | >80 µM |  |  |  |  |  |  | Activity [20]: 93%
CC(C)n1nc(-c2cc3c(Cl)cccc3[nH]2)c2c(N)ncnc21 |  |  |  |  |  |  |  |  |  |  |  | > 25 µM | 0.16 µM | 99.5% | 99.6% | 100% | 100% | 
Nc1nc(N)c2c3c(sc2n1)CN(Cc1ccccc1)CC3 |  |  |  |  |  |  |  |  |  |  |  | > 50 µM | 7.06 µM | 81.6% | 54.2% | 100% | 83.2% | IC50 [13]: no inhibition
Cc1cc(OCC(=O)Nc2ccc(C(C)C)cc2)n(C)c(=O)c1C#N |  |  |  |  |  |  |  |  |  |  | >80 µM |  |  |  |  |  |  | IC50 [21]: 7.2 µM; Inhibition [22]: 13.3%; IC50 [23]: 3.88 µM
Cc1nc(-c2ccccn2)nc(NCCc2ccc(S(C)(=O)=O)cc2)c1Cl | > 32 µM | 2.05 µM | > 32 µM | > 30 µM | 4.44 µM | > 32 µM | > 32 µM | > 32 µM | 13 µM | 30 µM | 27.9 µM |  |  |  |  |  |  | 
CC(C)(C)n1nc(Cc2ccc(F)c(Cl)c2)c2c(N)ncnc21 |  |  |  |  |  |  |  |  |  |  |  | > 25 µM | 1.7 µM | 95.5% | 98.3% | 100% | 100% | 
CCOc1ccc2cc(-c3nn(CC4CCN(C)CC4)c4ncnc(N)c34)ccc2c1 |  |  |  |  |  |  |  |  |  |  |  |  |  |  |  |  |  | IC50 [1]: 0.05 µM
CN1CCC(c2cc(-c3ccncc3)c(-c3ccc(F)cc3)[nH]2)CC1 |  |  |  |  |  |  |  |  |  |  |  | > 50 µM | 1.21 µM | 97.9% | 99.3% | 100% | 100% | 
O=C(OCc1ccccc1)N1CCC(c2cc(-c3ccncc3)c(-c3ccc(F)cc3)[nH]2)CC1 |  |  |  |  |  |  |  |  |  |  |  | > 50 µM | 0.87 µM | 99.1% | 77% | ~75% | 76.8% | 
CC(C)(C)n1nc(-c2ccccc2)c2c(N)ncnc21 |  |  |  |  |  |  |  |  |  |  |  | > 25 µM | 1.1 µM | 97.5% | 96.5% | 100% | 100% | 

Continued, in another order:

IC50 [2] | IC50 [4] | IC50 [6] | IC50 [7] | IC50 [8] | IC50 [11] | Structure (SMILES) | CC50 [3] | CC50 [5] | CC50 [9] | Toxicity on infected macrophages [10] | CC20 [12] | CC50 [14] | IC50 [15] | Inhibition [16] | inhibition at 10 µM [17] | Inhibition [18] | Inhibition [19] | other results
> 32 µM | 6.6 µM | > 32 µM | > 30 µM | 3.08 µM | > 32 µM | Clc1cccc(CO[C@H]2CCc3ccccc3[C@@H]2n2ccnn2)c1 | > 32 µM | > 32 µM | 64 µM | >30 µM | >80 µM |  |  |  |  |  |  | 
> 32 µM | 0.57 µM | > 32 µM | > 30 µM | > 32 µM | > 32 µM | O=C(Nc1c(O)cccc1-c1nc2c(C(=O)O)cccc2o1)c1cc(-c2ccccc2)on1 | > 32 µM | > 32 µM | 21.9 µM | >30 µM | 5.73 µM |  |  |  |  |  |  | 
1.29 µM | 3.87 µM | 3.45 µM | > 30 µM | 16 µM | 21.5 µM | c1ccc(Oc2ccc(-c3cc(N4CCOCC4)[nH]n3)cc2)cc1 | > 32 µM | > 32 µM | 10 µM | >30 µM | 7.47 µM |  |  |  |  |  |  | 
11.8 µM | 0.02 µM | 14.9 µM | 2.6 µM | 0.88 µM | 4.06 µM | Cc1nc(-c2ccccn2)nc(N(C)CCc2ccccc2)c1Cl | 21.7 µM | 4 µM | 9.6 µM | 16.7 µM | 11.3 µM |  |  |  |  |  |  | 
> 32 µM | 3.95 µM | > 32 µM | > 30 µM | > 32 µM | > 32 µM | COC(=O)c1cccc2oc(-c3cccc(OC)c3NC(=O)c3cc(-c4ccccc4)on3)nc12 | > 32 µM | > 32 µM | 50 µM | >30 µM | >80 µM |  |  |  |  |  |  | 
27.2 µM | 0.25 µM | > 32 µM | 5.17 µM | 4.25 µM | 16.2 µM | FC(F)(F)c1cc(NCCc2ccccc2)nc(-c2ccccn2)n1 | > 32 µM | 16 µM | 5.3 µM | 30 µM | >80 µM |  |  |  |  |  |  | 
< 0.13 µM | 14.3 µM | 0.25 µM | > 30 µM | 21.5 µM | > 32 µM | COc1ccc(C(=N)N)cc1-c1cn(-c2ccc(C(=N)N)cc2)nn1 | > 32 µM | > 32 µM | 26.7 µM | 30 µM | 5.47 µM |  |  |  |  |  |  | 
> 32 µM | 0.4 µM | > 32 µM | > 30 µM | > 32 µM | > 32 µM | O=C(Nc1ccccc1-c1nc2c(C(=O)O)cccc2o1)c1ccccc1 | > 32 µM | > 32 µM | 45.4 µM | >30 µM | >80 µM |  |  |  |  |  |  | 
16.4 µM | > 100 µM | 24.9 µM | 22.2 µM | 4.62 µM | 25.4 µM | N#CCN(CCCCN1CCN(c2ccc(F)cc2)CC1)C(=O)OCc1ccccc1 | > 32 µM | > 32 µM | 15.3 µM | >30 µM |  |  |  |  |  |  |  | Toxicity [10]: >30 µM
5.26 µM | 9.7 µM | 15.1 µM | 26.1 µM | 16 µM | > 32 µM | c1ccc(Oc2ccc(-c3cc(CN4CCOCC4)[nH]n3)cc2)cc1 | > 32 µM | > 32 µM | 22.9 µM | 30 µM | 28.9 µM |  |  |  |  |  |  | 
